Assay results: US20100168102A9, “Amide Derivatives as Kinase Inhibitors” (Devgen NV, priority 2005, published 2010)
Where two headings read alike, the source gives them in different places.

Legend:
PKC epsilon = molecular target: T1, PKC epsilon (Homo sapiens, UniProt Q02156); test: Biochemical assay for PKC epsilon (fluorescence polarization, Protein Kinase C Assay Kit, Red); details: read-out: IC50 μM PKCε
T1 construct: purchased Invitrogen P2282
T1 sequence (Q02156 1-737): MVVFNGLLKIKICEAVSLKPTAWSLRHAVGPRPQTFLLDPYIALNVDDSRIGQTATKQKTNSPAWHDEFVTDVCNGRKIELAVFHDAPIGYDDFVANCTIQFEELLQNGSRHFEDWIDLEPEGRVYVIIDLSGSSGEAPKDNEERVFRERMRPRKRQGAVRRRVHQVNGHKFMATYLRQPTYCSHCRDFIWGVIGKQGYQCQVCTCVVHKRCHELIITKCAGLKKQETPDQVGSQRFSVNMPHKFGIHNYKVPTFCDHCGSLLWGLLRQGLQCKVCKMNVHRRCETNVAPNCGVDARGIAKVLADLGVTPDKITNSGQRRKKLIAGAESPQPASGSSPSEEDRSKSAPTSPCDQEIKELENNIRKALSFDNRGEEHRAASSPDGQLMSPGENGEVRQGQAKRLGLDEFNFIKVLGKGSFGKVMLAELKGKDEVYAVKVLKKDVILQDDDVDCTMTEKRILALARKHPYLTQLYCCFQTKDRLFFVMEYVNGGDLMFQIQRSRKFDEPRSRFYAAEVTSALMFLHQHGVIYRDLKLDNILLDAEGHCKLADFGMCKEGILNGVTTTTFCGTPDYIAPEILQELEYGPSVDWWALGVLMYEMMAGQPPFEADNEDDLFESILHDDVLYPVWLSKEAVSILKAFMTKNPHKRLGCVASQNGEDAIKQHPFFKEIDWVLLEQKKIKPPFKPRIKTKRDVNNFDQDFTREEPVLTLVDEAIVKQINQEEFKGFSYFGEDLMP
Procedure, shortened: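 PKC epsilon at 10 ng/ml final was preincubated 30 min at room temperature with compound in HEPES pH 7.4 with DTT and Triton X-100. ATP/protein substrate was then added in buffer with MgCl2 and CaCl2 for 80 min. The reaction was stopped with EDTA, phosphorylation was detected by fluorescence polarization with rhodamine tracer and anti-phosphoserine antibody, and IC50 values came from curve fits.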

human ROCKα/ROCKII mix = molecular target: T2, human ROCKα/ROCKII mix (Homo sapiens, UniProt O75116); test: Biochemical assay for ROCK (fluorescence polarization, ROCK IMAP Kit)
T2 construct: purchased Upstate Biotechnology 14-451
T2 sequence (O75116 11-552 limits assumed): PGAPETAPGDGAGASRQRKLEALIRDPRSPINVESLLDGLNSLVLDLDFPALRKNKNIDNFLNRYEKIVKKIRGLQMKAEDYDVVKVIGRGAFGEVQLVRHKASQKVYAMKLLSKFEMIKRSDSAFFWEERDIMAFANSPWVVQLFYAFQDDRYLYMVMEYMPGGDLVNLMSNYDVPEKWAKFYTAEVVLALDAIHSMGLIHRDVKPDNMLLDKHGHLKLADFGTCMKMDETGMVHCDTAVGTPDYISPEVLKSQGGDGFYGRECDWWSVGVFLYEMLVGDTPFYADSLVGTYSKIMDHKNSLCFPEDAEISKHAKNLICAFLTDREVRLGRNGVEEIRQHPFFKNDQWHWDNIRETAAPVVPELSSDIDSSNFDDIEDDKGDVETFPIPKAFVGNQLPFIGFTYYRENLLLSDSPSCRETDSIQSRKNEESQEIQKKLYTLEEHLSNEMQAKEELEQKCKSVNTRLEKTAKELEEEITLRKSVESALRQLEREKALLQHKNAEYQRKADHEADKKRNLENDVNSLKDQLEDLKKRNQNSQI

[1] = compounds of Formula XIV, Table 3
[2] = Table 2, compounds of Formula XIII

| SMILES | IC50 (PKC epsilon; [1]) [µM] | IC50 (human ROCKα/ROCKII mix; [1]) [µM] | further results |
| --- | --- | --- | --- |
| COc1ccc(CCNC(=O)CC(N)c2ccc(C(=O)Nc3ccncc3)cc2)cc1OC (stereo not drawn) [Compound 293, 4-{1-Amino-2-[2-(3,4-dimethoxy-phenyl)-ethylcarbamoyl]-ethyl}-N-pyridin-4-yl-benzamide] | 5 to 50 | 0.5 to 5 |  |
| COc1cc(CCNC(=O)CC(N)c2ccc(C(=O)Nc3ccncc3)cc2)cc(OC)c1 (stereo not drawn) [Compound 294, 4-{1-Amino-2-[2-(3,5-dimethoxy-phenyl)-ethylcarbamoyl]-ethyl}-N-pyridin-4-yl-benzamide] | 5 to 50 | 0.05 to 0.5 |  |
| COc1ccc(OC)c(CCNC(=O)CC(N)c2ccc(C(=O)Nc3ccncc3)cc2)c1 (stereo not drawn) [Compound 295, 4-{1-Amino-2-[2-(3,6-dimethoxy-phenyl)-ethylcarbamoyl]-ethyl}-N-pyridin-4-yl-benzamide] | 5 to 50 | 0.05 to 0.5 |  |
| NC(CC(=O)NCCc1ccc(Cl)c(Cl)c1)c1ccc(C(=O)Nc2ccncc2)cc1 (stereo not drawn) [Compound 304] | 0.5 to 5 | 0.05 to 0.5 |  |
| NC(CC(=O)NCCc1ccccc1F)c1ccc(C(=O)Nc2ccncc2)cc1 (stereo not drawn) [Compound 305, 4-{1-Amino-2-[2-(2-fluoro-phenyl)-ethylcarbamoyl]-ethyl}-N-pyridin-4-yl-benzamide] | 0.5 to 5 | 0.05 to 0.5 |  |
| NC(CC(=O)NCCc1cccc(F)c1)c1ccc(C(=O)Nc2ccncc2)cc1 (stereo not drawn) [Compound 306] | 5 to 50 | 0.5 to 5 |  |
| NC(CC(=O)NCCc1cccs1)c1ccc(C(=O)Nc2ccncc2)cc1 (stereo not drawn) [Compound 311, 4-[1-amino-2-(2-thiophen-2-yl-ethylcarbamoyl)-ethyl]-N-pyridin-4-yl-benzamide] | 0.5 to 5 | 0.05 to 0.5 |  |
| NC(CC(=O)NCCc1c[nH]c2ccccc12)c1ccc(C(=O)Nc2ccncc2)cc1 (stereo not drawn) [Compound 313, 4-{1-Amino-2-[2-(1H-indol-3-yl)-ethylcarbamoyl]-ethyl}-N-pyridin-4-yl-benzamide] | 0.5 to 5 | 0.05 to 0.5 |  |
| Cc1ccc2[nH]cc(CCNC(=O)CC(N)c3ccc(C(=O)Nc4ccncc4)cc3)c2c1 (stereo not drawn) [Compound 314, 4-{1-Amino-2-[2-(5-methyl-1H-indol-3-yl)-ethylcarbamoyl]-ethyl}-N-pyridin-4-yl-benzamide] | 0.5 to 5 | 0.05 to 0.5 |  |
| CC(Cc1c[nH]c2ccccc12)NC(=O)CC(N)c1ccc(C(=O)Nc2ccncc2)cc1 (stereo not drawn) [Compound 315, 4-{1-Amino-2-[2-(1H-indol-3-yl)-1-methyl-ethylcarbamoyl]-ethyl}-N-pyridin-4-yl-benzamide] | 0.5 to 5 | 0.05 to 0.5 |  |
| NC(CC(=O)Nc1ccccc1)c1ccc(C(=O)Nc2ccncc2)cc1 (stereo not drawn) [Compound 316] | 0.5 to 5 | 0.05 to 0.5 |  |
| COc1ccc(NC(=O)CC(N)c2ccc(C(=O)Nc3ccncc3)cc2)cc1 (stereo not drawn) [Compound 319, 4-[1-Amino-2-(4-methoxy-phenyl-carbamoyl)-ethyl]-N-pyridin-4-yl-benzamide] | 0.5 to 5 | 0.05 to 0.5 |  |
| NC(CC(=O)Nc1ccc(CO)cc1)c1ccc(C(=O)Nc2ccncc2)cc1 (stereo not drawn) [Compound 320, 4-[1-Amino-2-(4-hydroxymethyl-phenyl-carbamoyl)-ethyl]-N-pyridin-4-yl-benzamide] | 0.5 to 5 | 0.05 to 0.5 |  |
| NC(CC(=O)Nc1ccc2[nH]ccc2c1)c1ccc(C(=O)Nc2ccncc2)cc1 (stereo not drawn) [Compound 321, 4-[1-Amino-2-(1H-indol-5-ylcarbamoyl)-ethyl]-N-pyridin-4-yl-benzamide] | 0.5 to 5 | 0.05 to 0.5 |  |
| NC(CC(=O)Nc1cc(-c2ccco2)[nH]n1)c1ccc(C(=O)Nc2ccncc2)cc1 (stereo not drawn) [Compound 323, 4-[1-Amino-2-(5-furan-2-yl-1H-pyrazol-3-ylcarbamoyl)-ethyl]-N-pyridin-4-yl-benzamide] | 0.5 to 5 | 0.05 to 0.5 |  |
| NC(CC(=O)NNC(=O)c1ccco1)c1ccc(C(=O)Nc2ccncc2)cc1 (stereo not drawn) [Compound 325, 4-{1-amino-3[N′-(furan-2-carbonyl)-hydrazino]-3-oxo-propyl}-N-pyridin-4-yl-benzamide] | 0.5 to 5 | 0.05 to 0.5 |  |
| NC(CNC(=O)Nc1ccc(Cl)cc1)c1ccc(C(=O)Nc2ccncc2)cc1 (stereo not drawn) [Compound 326, 4-{1-Amino-2-[3-(4-chloro-phenyl)-ureido]-ethyl}-N-pyridin-4-yl-benzamide] |  |  | IC50 (PKC epsilon): 0.05 to 0.5 µM; IC50 (human ROCKα/ROCKII mix): 0.05 to 0.5 µM |
| COc1ccc(CC(=O)NCC(N)c2ccc(C(=O)Nc3ccncc3)cc2)cc1F (stereo not drawn) [Compound 327, 4-{1-Amino-2-[2-(3-fluoro-4-methoxy-phenyl)-acetylamino]-ethyl}-N-pyridin-4-yl-benzamide] |  |  | IC50 (PKC epsilon; [2]): 0.5 to 5 µM; IC50 (human ROCKα/ROCKII mix; [2]): 0.05 to 0.5 µM |

Continued, in another order:

| IC50 (PKC epsilon; [1]) [µM] | IC50 (human ROCKα/ROCKII mix; [1]) [µM] | SMILES | further results |
| --- | --- | --- | --- |
| 0.5 to 5 | 0.05 to 0.5 | CCOc1ccccc1CCNC(=O)CC(N)c1ccc(C(=O)Nc2ccncc2)cc1 (stereo not drawn) [Compound 288, 4-{1-Amino-2-[2-(2-ethoxy-phenyl)-ethylcarbamoyl]-ethyl}-N-pyridin-4-yl-benzamide] |  |
| 0.5 to 5 | 0.05 to 0.5 | COc1cccc(CCNC(=O)CC(N)c2ccc(C(=O)Nc3ccncc3)cc2)c1 (stereo not drawn) [Compound 289, 4-{1-Amino-2-[2-(3-methoxy-phenyl)-ethylcarbamoyl]-ethyl}-N-pyridin-4-yl-benzamide] |  |
| 0.5 to 5 | 0.05 to 0.5 | CCOc1ccc(CCNC(=O)CC(N)c2ccc(C(=O)Nc3ccncc3)cc2)cc1 (stereo not drawn) [Compound 290] |  |
| 0.5 to 5 | 0.05 to 0.5 | COc1ccc(CCNC(=O)CC(N)c2ccc(C(=O)Nc3ccncc3)cc2)cc1 (stereo not drawn) [Compound 291, 4-{1-Amino-2-[2-(4-methoxy-phenyl)-ethylcarbamoyl]-ethyl}-N-pyridin-4-yl-benzamide] |  |
| 0.5 to 5 | 0.05 to 0.5 | NC(CC(=O)NCCc1ccc(Oc2ccccc2)cc1)c1ccc(C(=O)Nc2ccncc2)cc1 (stereo not drawn) [Compound 292, 4-{1-Amino-2-[2-(4-phenoxy-phenyl)-ethylcarbamoyl]-ethyl}-N-pyridin-4-yl-benzamide] |  |
| 0.5 to 5 | 0.05 to 0.5 | NC(CC(=O)NCCc1ccccc1Cl)c1ccc(C(=O)Nc2ccncc2)cc1 (stereo not drawn) [Compound 297, 4-{1-Amino-2-[2-(2-chloro-phenyl)-ethylcarbamoyl]-ethyl}-N-pyridin-4-yl-benzamide] |  |
| 0.5 to 5 | 0.05 to 0.5 | NC(CC(=O)NCCc1cccc(Cl)c1)c1ccc(C(=O)Nc2ccncc2)cc1 (stereo not drawn) [Compound 298, 4-{1-Amino-2-[2-(3-chloro-phenyl)-ethylcarbamoyl]-ethyl}-N-pyridin-4-yl-benzamide] |  |
| 0.5 to 5 | 0.05 to 0.5 | NC(CC(=O)NCCc1ccc(Cl)cc1)c1ccc(C(=O)Nc2ccncc2)cc1 (stereo not drawn) [Compound 299, 4-{1-Amino-2-[2-(4-chloro-phenyl)-ethylcarbamoyl]-ethyl}-N-pyridin-4-yl-benzamide] |  |
| 0.5 to 5 | 0.05 to 0.5 | CC(Cc1ccc(Cl)cc1)NC(=O)CC(N)c1ccc(C(=O)Nc2ccncc2)cc1 (stereo not drawn) [Compound 300, 4-{1-Amino-2-(2-(4-chloro-phenyl)-1-methyl-ethylcarbamoyl]-ethyl}-N-pyridin-4-yl-benzamide] |  |
| 0.05 to 0.5 | 0.05 to 0.5 | CC(CNC(=O)CC(N)c1ccc(C(=O)Nc2ccncc2)cc1)c1ccc(Cl)cc1 (stereo not drawn) [Compound 301, 4-{1-Amino-2-[2-(4-chloro-phenyl)-propylcarbamoyl]-ethyl}-N-pyridin-4-yl-benzamide] |  |
| 0.5 to 5 | 0.05 to 0.5 | NC(CC(=O)NCCc1c(Cl)cccc1Cl)c1ccc(C(=O)Nc2ccncc2)cc1 (stereo not drawn) [Compound 302] |  |
| 0.5 to 5 | 0.05 to 0.5 | NC(CC(=O)NCCc1ccc(Cl)cc1Cl)c1ccc(C(=O)Nc2ccncc2)cc1 (stereo not drawn) [Compound 303, 4-{1-Amino-2-[2-(2,4-dichloro-phenyl)-ethylcarbamoyl]-ethyl}-N-pyridin-4-yl-benzamide] |  |
| 0.05 to 0.5 | 0.05 to 0.5 | NC(CC(=O)NCCc1ccc(F)cc1)c1ccc(C(=O)Nc2ccncc2)cc1 (stereo not drawn) [Compound 307, 4-{1-amino-2-[2-(4-fluoro-phenyl)-ethylcarbamoyl]-ethyl}-N-pyridin-4-yl-benzamide] |  |
| 0.05 to 0.5 | 0.05 to 0.5 | CC(C)(Cc1ccc(F)cc1)NC(=O)CC(N)c1ccc(C(=O)Nc2ccncc2)cc1 (stereo not drawn) [Compound 308, 4-{1-amino-2-[2-(4-fluoro-phenyl)-1,1-dimethyl-ethylcarbamoyl]-ethyl}-N-pyridin-4-yl-benzamide] |  |
| 0.05 to 0.5 | 0.05 to 0.5 | NC(CC(=O)Nc1ccc2cc[nH]c2c1)c1ccc(C(=O)Nc2ccncc2)cc1 (stereo not drawn) [Compound 322, 4-[1-Amino-2-(1H-indol-6-ylcarbamoyl)-ethyl]-N-pyridin-4-yl-benzamide] |  |
